Test: Solubility properties of the water soluble polar solvents (nitrapyrin solubility, water solubility)
Conditions: water solubility of the polar solvent

water solubility: 100%
SMILES: COC(C)COC(C)CO (stereo not shown) [Dowanol DPM, dipropylene glycol monomethyl ether]
